Assay results from US10828301B2, “2,4-pyrimidinediamine compounds and their uses” (Rigel Pharmaceuticals, Inc, priority 2002, dated 2020).

Tests used:
[1] = system: proteins downstream of Syk kinase in activated BMMC cells; assay: Phosphorylation of proteins in the IgE receptor signal transduction cascade in activated BMMC cells; assay type: cell-based, mouse; settings: varying concentrations, FIG. 7
[2] = system: basophils in whole human peripheral blood; assay: Basophil dustmite activation: histamine release assay; assay type: cell-based; settings: read-out: Basophils Dust mite Histmine IC50
Procedure: The basophil activation assay was carried out using whole human peripheral blood from donors allergic to dust mites with the majority of the red blood cells removed by dextran sedimentation. Human peripheral blood was mixed 1:1 with 3% dextran T500 and RBCs were allowed to settle for 20-25 min. The upper fraction was diluted with 3 volumes of D-PBS and cells were spun down for 10 min at 1500 rpm, RT. Supernatant was aspirated and cells were washed in an equal volume MT-buffer. Finally, cells were resuspended in MT-buffer containing 0.5% DMSO in the original blood volume. 80 uL cells were mixed with 20 uL compound in the presence of 0.5% DMSO, in triplicate, in a V-bottom 96-well tissue culture plate. A dose range of 8 compound concentrations was tested resulting in a 10-point dose response curve including maximum (stimulated) and minimum (unstimulated) response. […] The cells were stimulated for 30 minutes at 37° C., 5% CO2. […] The ELISA was performed according to supplier's instructions.

[3] = target: FcγRI receptor-mediated degranulation; assay: FcγRI-mediated degranulation (activation with anti-human IgG Fab fragment); settings: cells not primed with IgE, activated with rabbit anti-human IgG Fab fragment

Oc1cccc(Nc2ncc(F)c(Nc3cccc(O)c3)n2)c1 [Compound R921218, N2,N4-Bis(3-hydroxyphenyl)-5-fluoro-2,4-pyrimidinediamine]
phosphorylation of various proteins downstream of Syk kinase in the IgE receptor signal transduction cascade [1]: inhibit phosphorylation | IC50 [2]: 302 nM | inhibition of FcγRI-mediated degranulation [3]: inhibit FcγRI-mediated degranulation
